Assay results as given in patent US20070009495A1, “Method for treating or preventing systemic inflammation in formula-fed infants” (priority 2005, published 2007).

Columns and labels:
Type in all cases: in vivo, Sprague-Dawley infant rats
TNF-α [1] = experiment: TNF-α production by ELISA in plasma and lung of rat pups
Description: (§1) This example describes the materials and methods necessary to show the effect of LGG on formula-fed neonatal rat pups. In two separate experiments, ten Sprague-Dawley (Taconic, Germantown, N.Y.) infant rats were randomly assigned to two gastrostomy feeding groups with five rats per group. Gastrostomy feeding, using the rat infant “pup-in-the-cup” model, began on day 7 of life of the rat pups. The gastrostomy feeding tubes were constructed from 14-cm sections of polyethylene tubing that were inserted into the stomach of the pups. This is a commonly used model in studies of developmental nutrition when it is important to manipulate nutritional composition in the absence of maternal feedings. […]
(§2) During a 2-day acclimation period, the gastrostomy-fed rat pups were fed with rat milk substitute (RMS). […] All of the gastrostomy-fed groups received the same quantity of fat and carbohydrates.
(§3) Lipopolysaccharide (LPS) from Escherichia coli 0127:B8 (LPS; Sigma, St. Louis, Mo.) was dissolved in water by vortexing at a concentration of 2 mg/ml. […] This dose was determined in pilot studies to result in occasional shivering, piloerection, and poor weight gain but was not associated with a significant increase in mortality over a 6-day period. […]
To further investigate the effects of the diets on TNF-α, TNF-α production was evaluated by ELISA in the plasma and lung. […]

IL-1β = experiment: Multiplex bead cytokine assay, IL-1β
Description: as §1, §2, §3
(§4) To further investigate the effects of LPS and LGG on cytokines, 14 cytokines/chemokines from lung, liver, plasma and distal small intestine were analyzed. […]

GRO/KC (rat CINC-1) = experiment: Multiplex bead cytokine assay, GRO/KC
Description: as §1, §2, §3, §4

[2] = test system: cytokine/chemokine levels; experiment: Multiplex bead cytokine assay, liver cytokine/chemokine levels
Description: as §1, §2, §3, §4

TNF-α [3] = experiment: Multiplex bead cytokine assay, TNF-α
Description: as §1, §2, §3, §4

IL-18 = experiment: Multiplex bead cytokine assay, IL-18
Description: as §1, §2, §3, §4

[4] = Growth (body weight) of gastrostomy-fed, LPS-treated rat pups; details: LGG 1×10^8 cfu/L/kg/day
Description: (§5) This example describes the materials and methods necessary to show the effect of LGG on formula-fed neonatal rat pups. In two separate experiments, ten Sprague-Dawley (Taconic, Germantown, N.Y.) infant rats were randomly assigned to two gastrostomy feeding groups with five rats per group. Gastrostomy feeding, using the rat infant “pup-in-the-cup” model, began on day 7 of life of the rat pups. The gastrostomy feeding tubes were constructed from 14-cm sections of polyethylene tubing that were inserted into the stomach of the pups. This is a commonly used model in studies of developmental nutrition when it is important to manipulate nutritional composition in the absence of maternal feedings. The gastrostomy placement was done under isoflurane anesthesia. […]
as §2, §3

IL-6 = experiment: Multiplex bead cytokine assay, IL-6
Description: as §1, §2, §3, §4

ileum intestinal mucosa = experiment: Intestinal morphology of ileum (H&E stain) in LPS-treated rat pups
Description: as §5, §2, §3

MPO = MPO activity in distal small intestine and lung of rat pups
Description: as §1, §2, §3
This example illustrates the effect of LGG on MPO levels. […] MPO concentration of the supernatant was measured by the H2O2-dependent oxidation of tetramethylbenzidine. […]

CINC-1 = CINC-1 peptide production by ELISA in rat pup tissues
Description: This example describes the materials and methods necessary to show the effect of LGG on formula-fed neonatal rat pups. In two separate experiments, ten Sprague-Dawley (Taconic, Germantown, N.Y.) infant rats were randomly assigned to two gastrostomy feeding groups with five rats per group. Gastrostomy feeding, using the rat infant “pup-in-the-cup” model, began on day 7 of life of the rat pups. The gastrostomy feeding tubes were constructed from 14-cm sections of polyethylene tubing that were inserted into the stomach of the pups. This is a commonly used model in studies of developmental nutrition when it is important to manipulate nutritional composition in the absence of maternal feedings. The gastrostomy placement was done under isoflurane anesthesia. Timer-controlled syringe pumps were connected to the feeding tubes and were set to feed the rats for the first 20 minutes of every hour at a weight-dependent flow rate. Five mother-reared rats of the same age were used as reference controls.
During a 2-day acclimation period, the gastrostomy-fed rat pups were fed with rat milk substitute (RMS). The protein component of the RMS was between 30 and 40 g/kg/day, which is similar to that of mother's milk and is required for normal growth. One of the RMS fed groups was also given a supplement of 1×10^8 cfu/L/kg/day LGG. The other group was fed RMS alone, without LGG supplementation. All of the gastrostomy-fed groups received the same quantity of fat and carbohydrates.
Lipopolysaccharide (LPS) from Escherichia coli 0127:B8 (LPS; Sigma, St. Louis, Mo.) was dissolved in water by vortexing at a concentration of 2 mg/ml. The gastrostomy-fed rats were given between 0.25 and 0.5 mg/kg/day of LPS via the gastrostomy tube starting 2 days after the initiation of artificial feeding. The pups were given LPS supplementation for 6 days. This dose was determined in pilot studies to result in occasional shivering, piloerection, and poor weight gain but was not associated with a significant increase in mortality over a 6-day period.
At the end of the 6-day treatment period, the rat pups were euthanized with an overdose of pentobarbital sodium. The small intestine was removed and separated into three parts: the ileum, jejunum, and duodenum, stored at −80° C. for enzyme assays and ELISA, or fixed in 10% neutral buffered formalin for intestinal morphology. Lung, liver and plasma were stored at −80° C. for enzyme assays and ELISA.
This example illustrates the effect of LGG on CINC-1. Small intestine and plasma CINC-1 levels were determined by TiterZyme Enzyme Immunometric Assay kits for rat growth-related oncogene/CINC-1 (Assay Designs, Ann Arbor, Mich.). Absorbance was determined at 450 nm, and concentration was calculated using the equation derived from a linear standard curve.
To further investigate the effects of the diets on CINC-1 peptide, CINC-1 production was evaluated by ELISA in the small intestine, liver, lung and plasma. In an initial experiment, LPS administration to rat pups caused an approximate 4-fold elevation in CINC-1 over non-LPS treated pups fed by gastrostomy (data not shown). […] In the liver and plasma, LGG supplementation reduced CINC-1 levels to a level which was very similar to that of mother's milk-fed rat pups.

IL-10 = experiment: Multiplex bead cytokine assay, IL-10
Description: as §1, §2, §3, §4

## Lactobacillus rhamnosus GG [LGG]
TNF-α [1]; lung
  LPS induced elevation of TNF-α, lung: significantly blunted
TNF-α [1]; plasma
  LPS induced elevation of TNF-α, plasma: significantly blunted
IL-1β; lung
  LPS induced elevation of IL-1β, lung: significantly blunted
IL-1β; plasma
  LPS induced elevation of IL-1β, plasma: significantly blunted
GRO/KC (rat CINC-1); lung
  LPS induced elevation of GRO/KC (rat CINC-1), lung: significantly blunted
GRO/KC (rat CINC-1); plasma
  LPS induced elevation of GRO/KC (rat CINC-1), plasma: significantly blunted
[2]
  LPS induced increase of cytokine/chemokine levels in the liver: blunted
TNF-α [3]
  LPS induced elevation of TNF-α, lung: significantly blunted
IL-18; lung
  LPS induced elevation of IL-18, lung: significantly blunted
IL-18; plasma
  LPS induced elevation of IL-18, plasma: significantly blunted
[4]
  weight gain: did not improve weight gain
IL-6; lung
  LPS induced elevation of IL-6, lung: significantly blunted
IL-6; plasma
  LPS induced elevation of IL-6, plasma: significantly blunted
Ileum intestinal mucosa; LPS plus LGG group vs LPS group
  ileum histological features (metaplasia, lymphoplasmacytic infiltrate, thinning of muscularis mucosa, regenerative crypt changes): attenuated
Ileum intestinal mucosa; LPS/LGG group vs mother's milk-fed rat pups
  physical damage in the intestinal mucosa: reduced to a level similar to that of mother's milk-fed rat pups
MPO; distal small intestine
  LPS induced elevation of MPO, distal small intestine: significantly blunted
MPO; lung
  LPS induced elevation of MPO, lung: significantly blunted
CINC-1; liver, LPS/LGG vs LPS
  liver CINC-1 concentration: significantly attenuated
CINC-1; lung, LPS/LGG vs LPS
  lung CINC-1: significantly attenuated
CINC-1; plasma, LPS/LGG vs LPS
  plasma CINC-1 concentration: significantly attenuated
CINC-1; small intestine, LPS vs LPS/LGG vs mother-fed
  intestinal CINC-1 levels: did not differ significantly among the 3 groups
IL-10
  LPS induced elevation of IL-10, lung: significantly blunted

## Lipopolysaccharide (LPS) from Escherichia coli 0127:B8 [reference compound]
CINC-1; initial experiment, over non-LPS treated pups fed by gastrostomy (data not shown)
  elevation in CINC-1: approximately 4 fold
CINC-1; liver, LPS treated group that did not receive LGG
  liver CINC-1 concentration, fold as high: ~2 fold
CINC-1; lung, LPS treatment compared to mother-fed controls
  lung CINC-1 elevation: approximately 4 fold
CINC-1; plasma, LPS treated group that did not receive LGG
  plasma CINC-1 concentration, fold as high: ~2 fold
